Structures are written as SMILES.

One assay relates to LC3-II production in Hep3B cells. Put plainly: Autophagy activation: degree of LC3-II production in Hep3B cells (Western blot band density). It is filed as cell-based, human. Conditions: 12 hours. On the procedure: The degree of autophagy activation of each compound was evaluated by measuring the degree of LC3-II production in Hep3B cells.
Specifically, Hep3B human hepatocytes were cultured in DMEM medium at 37° C. under 5% CO2 atmosphere. The respective cells were dispensed into 6-well plates at a density of 5×10^5 cells/well. These cells were treated with DMSO, the compound prepared in Examples described above, and the compound of Comparative Example, respectively, and then treated in DMEM medium at 37° C. under 5% CO2 atmosphere for 12 hours to induce autophagy. Subsequently, Hep3B cells were lysed with an extraction buffer containing protease inhibitor cocktail (PBS solution containing 0.5% Triton X-100, 1 mM Na3VO4, etc.), and then fragmentation of DNA was performed by sonication. The amount of protein was measured with bovine serum albumin as a protein standard using SMART™ BCA Protein Assay kit from iNtRON Biotechnology. After electrophoresis of 10˜50 μg of total cell protein in 8˜12% (w/v) polyacrylamide gel containing 0.1% SDS, the proteins present in a gel were transferred to PVDF membrane by an electroblotting technique. Then, in order to block non-specific binding, the PVDF membrane was placed in a TBS-tween (tris-buffered saline-tween, Sigma Co.) solution containing 5% non-fat dry milk and reacted at room temperature for 1 hour. The filter was placed in a TBS-tween solution containing a specific antibody against LC3 protein (Cell Signaling), allowed to stand at 4° C. for 12 hours, and then labeled with a secondary antibody labeled with HRP (Horseradish Peroxidase, Sigma Co., Cat No. P0889). Then, bands were measured using ECL (Enhanced Chemiluminescence, Thermo Scientific, Cat No. 34080).
The induction of autophagy can be confirmed by an increase in specific LC3-II molecules. LC3 precursors are usually scattered in the cytoplasm, proteolytically cleaved, and present in the form of LC3-I. When autophagy is activated, the C-terminal glycine is modified to form LC3-II, which migrates to autophagosome and is distributed in puncta form.
The amount of LC3-II increased by the compound treatment was quantified by measuring the band density, and then compared with the amount of LC3-II increased by the treatment of the compound of Comparative Example, and the comparison values are shown in Table 1.
For orientation: A western blot detects proteins with antibodies after separation by electrophoresis.
As for `COc1ccc(-c2ccc(C(=O)NC(C)C)s2)cc1OC` [Comparative Example, 5-(3,4-dimethoxyphenyl)-N-isopropylthiophene-2-carboxamide, reference compound], the “increase in LC3-II (induction of autophagy), in words” value is “Hep3B cells induce autophagy”.

Staying with this assay, now noted: amount of LC3-II increased by compound treatment relative to that of the Comparative Example (=1), 12 hours.
The compound `Cc1cc(C)cc(-c2ccc(C(=O)Nc3ccccc3)s2)c1` [Example 48, 5-(3,5-dimethylphenyl)-N-phenylthiophene-2-carboxamide] yielded an Autophagy-inducing capacity of 1.46.

As for `CCOC(=O)c1ccc(-c2cnc3ccccc3c2)o1` [Example 88, ethyl 5-(quinolin-3-yl)furan-2-carboxylate], the Autophagy-inducing capacity is given as 1.02. On the same count and under the same terms, under `CC(C)NC(=O)c1ccc(-c2cncc3ccccc23)o1` [Example 65, N-isopropyl-5-(isoquinolin-4-yl)furan-2-carboxamide] stands 1.66.

`O=C(Nc1cccnc1)c1ccc(-c2cccnc2)o1` [Example 58, N,5-di(pyridin-3-yl)furan-2-carboxamide] registered an Autophagy-inducing capacity of 1.10. Take `CCNC(=O)c1ccc(-c2ccc(C(=O)NC(C)C)o2)cc1` [Example 93, 5-(4-(ethylcarbamoyl)phenyl)-N-isopropylfuran-2-carboxamide]: the Autophagy-inducing capacity came to 1.19. `CC(C)NC(=O)c1ccc(-c2ccc(O)cc2)s1` [Example 5, 5-(4-hydroxyphenyl)-N-isopropylthiophene-2-carboxamide] gave an Autophagy-inducing capacity of 1.80. With `CC(C)NC(=O)c1ccc(-c2cnc3ccccc3c2)s1` [Example 17, N-isopropyl-5-(quinolin-3-yl)thiophene-2-carboxamide], the Autophagy-inducing capacity is on record as 1.99. In turn, `CC(C)NC(=O)c1ccc(-c2cncc3ccccc23)s1` [Example 15, N-isopropyl-5-(isoquinolin-4-yl)thiophene-2-carboxamide] registered an Autophagy-inducing capacity of 1.50.

`Cc1cccc(-c2ccc(C(=O)NC(C)C)s2)c1` [Example 30, N-isopropyl-5-m-tolylthiophene-2-carboxamide]: the Autophagy-inducing capacity worked out at 1.02. Same read-out and setting: the same measure for `O=C(Nc1cccnc1)c1ccc(-c2cccc(O)c2)o1` [Example 91, 5-(3-hydroxyphenyl)-N-(pyridin-3-yl)furan-2-carboxamide]: 1.33; for `CC(C)NC(=O)c1ccc(-c2cccc(O)c2)s1` [Example 4, 5-(3-hydroxyphenyl)-N-isopropylthiophene-2-carboxamide]: 1.16; for `COc1ccc(-c2ccc(C(=O)NC(C)C)s2)cc1OC` [Comparative Example, 5-(3,4-dimethoxyphenyl)-N-isopropylthiophene-2-carboxamide, reference compound]: 1.00. In turn, `CC(C)OC(=O)c1ccc(-c2cccnc2)s1` [Example 72, isopropyl 5-(pyridin-3-yl)thiophene-2-carboxylate] yielded an Autophagy-inducing capacity of 1.08.

With `Cc1cc(C)cc(-c2ccc(C(=O)NC(C)C)o2)c1` [Example 85, 5-(3,5-dimethylphenyl)-N-isopropylfuran-2-carboxamide], the Autophagy-inducing capacity amounted to 1.09. Still for that read-out and setting: under `CC(C)NC(=O)c1ccc(-c2cccnc2)s1` [Example 7, N-isopropyl-5-(pyridin-3-yl)thiophene-2-carboxamide] stands 1.24; under `CC(C)NC(=O)c1ccc(-c2ccc(F)c(F)c2)s1` [Example 27, 5-(3,4-difluorophenyl)-N-isopropylthiophene-2-carboxamide], 1.01. Regarding `COc1cc(-c2ccc(C(=O)NC(C)C)s2)ccc1O` [Example 1, 5-(4-hydroxy-3-methoxyphenyl)-N-isopropylthiophene-2-carboxamide], the Autophagy-inducing capacity was 1.48. The same measure, in the same setting: the same measure for `CCNC(=O)c1cccc(-c2ccc(C(=O)NC(C)C)o2)c1` [Example 92, 5-(3-(ethylcarbamoyl)phenyl)-N-isopropylfuran-2-carboxamide]: 1.41; for `COc1cc(-c2ccc(C(=O)NC(C)C)s2)cnc1N` [Example 14, 5-(6-amino-5-methoxypyridin-3-yl)-N-isopropylthiophene-2-carboxamide]: 1.13. For the compound `COc1ccc(-c2ccc(C(=O)NC(C)C)s2)c(OC)n1` [Example 12, 5-(2,6-dimethoxypyridin-3-yl)-N-isopropylthiophene-2-carboxamide], the Autophagy-inducing capacity was determined as 1.19. The same measure, in the same setting: under `CCOC(=O)c1ccc(-c2ccc(C#N)cc2)o1` [Example 89, ethyl 5-(4-cyanophenyl)furan-2-carboxylate] stands 1.64; under `CC(C)NC(=O)c1ccc(-c2ccc(C(=O)NC(C)C)o2)cc1` [Example 94, N-isopropyl-5-(4-(isopropylcarbamoyl)phenyl)furan-2-carboxamide], 1.17; under `O=C(Nc1ccccc1)c1ccc(-c2cccnc2)s1` [Example 49, N-phenyl-5-(pyridin-3-yl)thiophene-2-carboxamide], 1.51. Still for that read-out and setting: under `Cc1ccc(-c2ccc(C(=O)NC(C)C)s2)c(C)c1` [Example 31, 5-(2,4-dimethylphenyl)-N-isopropylthiophene-2-carboxamide] stands 1.49; under `CC(C)NC(=O)c1ccc(-c2ccc3[nH]ccc3c2)s1` [Example 11, 5-(1H-indol-5-yl)-N-isopropylthiophene-2-carboxamide], 2.13; under `CC(C)NC(=O)c1ccc(-c2cccc(N)c2)s1` [Example 18, 5-(3-aminophenyl)-N-isopropylthiophene-2-carboxamide], 1.13. Still for that read-out and setting: the same measure for `Cc1cc(C)cc(-c2ccc(C(=O)NC(C)C)s2)c1` [Example 28, 5-(3,5-dimethylphenyl)-N-isopropylthiophene-2-carboxamide]: 1.60; for `COc1ccc(-c2ccc(C(=O)NC(C)C)s2)cc1O` [Example 2, 5-(3-hydroxy-4-methoxyphenyl)-N-isopropylthiophene-2-carboxamide]: 1.38.

The values above are taken from patent publication US11407744B2, “Compound and pharmaceutical composition comprising same” (AUTOPHAGYSCIENCES INC., priority 2018, dated 2022).
